Test results: publication PMC11203919, “Heat Stress and Microbial Stress Induced Defensive Phenol Accumulation in Medicinal Plant Sparganium stoloniferum” (International Journal of Molecular Sciences, 2024)

Molecular target: T1, SsC4H (Sparganium stoloniferum, UniProt A0AAU8GF87)
T1 construct: gene C4H; pYeDP60 in yeast WAT11 culture, not purified
Assay: substrate feeding of yeast culture, LC-MS/MS of p-coumaric acid
Type: cell-based
Settings: 0.5 mM substrate, 16 °C, 12 h; yeast WAT11

T1 sequence (A0AAU8GF87 entry or part of it): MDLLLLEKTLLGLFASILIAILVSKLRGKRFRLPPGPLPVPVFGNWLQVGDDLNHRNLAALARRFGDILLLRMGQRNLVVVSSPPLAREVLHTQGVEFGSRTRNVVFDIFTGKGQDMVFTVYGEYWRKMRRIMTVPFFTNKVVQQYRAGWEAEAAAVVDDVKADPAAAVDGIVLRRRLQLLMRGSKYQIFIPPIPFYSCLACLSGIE

## O=C(O)/C=C/c1ccccc1 [trans-cinnamic acid]
  substrate feeding of yeast culture, LC-MS/MS of p-coumaric acid: Upon adding trans-cinnamic acid to the SsC4H-pYeDP60-WAT11 culture, hydroxylation occurred to produce p-coumaric acid
